In one experiment the test system is E3α. Briefly: 125I-ubiquitin conjugation to endogenous muscle proteins in Fraction II of muscle extracts from YAH tumor-bearing rats, with E3α inhibitor. In kind it is biochemical, rat. Conditions: 10 mM inhibitor, 20 μg/ml bestatin, 37° C., 20 minutes, Fraction II of gastrocnemius muscle extract. On the procedure:
The rate of ubiquitin conjugation of the endogenous muscle proteins were carried out as described in Example 10 using the skeletal muscles from the YAH tumor-bearing rats. The frozen gastrocnemius muscles collected (via dissection at sacrifice) from 6 tumor-bearing rats were combined. The muscle extracts (20% weight/volume) were prepared by homogenizing the muscles in a buffer containing 50 mM Tris HCl (pH 8.00), 5 mM MgCl2, 2 mM DTT, protease inhibitor cocktail (Sigma P8340) and 10% glycerol. The homogenates were then centrifuged at 40,000 g for 1 hr and the resulting supernatants were used as crude muscle extracts.
For some assays, the crude muscle extracts were fractionated further by chromatography on DEAE-cellulose (Whatman, Clifton, N.J.) to remove endogenous ubiquitin as described by Soloman et al. (Proc. natl. Acad. Sci. U.S.A., 95: 12602-7, 1998). The bound material Fraction II, which contained most of the ubiquitin conjugating enzymes were eluted with 50 mM Tris, pH 8.0 containing 0.5M NaCl and 1 mM DTT. Both crude extracts and Fraction II were dialyzed prior to use for ubiquitination assay against buffer containing 20 mM Tris, pH 8.0, 2 mM DTT, 5 mM MgCl2, and 10% glycerol and stored at […] until use. Crude muscle extracts were used for ubiquitin conjugation to ^125I-α-lactalbumin. […]

Another experiment relates to muE3αII. Briefly: Northern blot of muE3αII mRNA in cytokine-treated C2C12 myotubes. Format: cell-based, mouse. The settings on record: 10 ng/ml cytokine for 3 days and 5 days, differentiated C2C12 myotubes vs untreated. On the procedure: Treatment with the proinflammatory cytokines, TNFα and IL-6, caused the induction of […] in C2C12 myotube cultures. C2C12 myoblasts were cultured in 100-mm dishes in an atmosphere of 5% CO2 at 37° C. in DMEM supplemented with 10% FBS and L-glutamine to reach 100% confluence. Myoblast differentiation was induced with DMEM supplemented with 2% horse serum and L-glutamine for 96 hours. Differentiated myotubes were then treated with TNFα (10 ng/ml; R&D Systems cat no. 210-TA) or IL-6 (10 ng/ml; R&D Systems cat no. 206-IL) for 3 days and 5 days.
After the 3 or 5 day incubation, RNA from differentiated C2C12 cultures was isolated with Trizol Reagent and Northern blot analysis was carried out as described in Example 11. Isolated RNA from untreated C2C12 cultures were used as a control. The blots were hybridized with a ^32P-labeled cDNA probes specific for muE3αI (lower panels) and muE3αII (upper panels). The probes were generated as described in Example 12.

The test system of experiment [1] is differentiated C2C12 cells. Briefly: 125I-ubiquitin conjugation of cellular proteins in cytokine-treated differentiated C2C12 myotubes. Format: cell-based, murine. On the procedure:
To further substantiate the enzymatic activity of huE3αI and huE3αII, ubiquitin conjugation to endogenous cellular proteins were measured in cultured muscle cell lines. Cultures of murine C2C12 or rat L6 myotube cells (ATCC accession nos. CRL-1772 and CRL-1458, respectively) were transfected with huE3αI or huE3αII full length cDNA under control of the CMV promoter using Lipofectamine 2000 Reagent (Gibco). Mock transfection with the pcDNA3.1 vector without a cDNA insert was performed as a control. Cell lysates were prepared as described above for the 293T cells and the resulting supernatants were used in ubiquitin conjugation reactions. For each reaction, 30 μg of C2C12or L6 myotube cell lysate was incubated with ^125I-ubiquitin (0.15 mg/ml, approximately ×10^7 cpm) in a total volume of 25-30 μl in a buffer containing 50 mM Tris, pH 8.0, 2 mM DTT, 5 mM MgCl2, 2 mM adenosine 5′-[-thio]triphosphate (ATP S), 50 μg/ml ubiquitin aldehyde, 20 μg/ml MG132 and protease inhibitor cocktail (Sigma P8340) at 37° C. for 30 minutes. Reactions were stopped by adding sample buffer and were subjected to 12% SDS PAGE. The gels were then dried and autoradiographed.
C2C12 cells were differentiated for 5 days to allow formation of myotubes. The differentiated myotubes were treated with 2 ng/ml of IL-6 for 5, 24 or 48 hours. […]

We go through three compounds from patent US7994291B2, “Human E3α ubiquitin ligase family” (Amgen Inc., priority 2000, dated 2011).

“Also recorded” adds a separate entry of the source.

Turning to `COC(=O)[C@@H](N)CCCNC(=N)N` [arginine methylester, arginine methyl ester], the “effect on accelerated muscle protein ubiquitination of tumor-bearing rats” value with E3α was “virtually abolished the accelerated ubiquitination activity; also recorded: virtually abolished all the increased ubiquitination activities”.

Consider “IL-6: proinflammatory cytokine (R&D Systems cat no. 206-IL)”, for which the “expression of muE3αII mRNA” value with muE3αII is “markedly increased”. Also, the “ubiquination of cellular proteins” value in experiment [1] (2 ng/ml IL-6 for 5, 24 or 48 hours, detectable 5 hours post-treatment, time dependent) was “marked increase”.

In the case of TNFα, in the experiment with muE3αII, the “expression of muE3αII mRNA” value was “markedly increased”. Besides, in experiment [1] (TNFα 0, 3, 6, 10, 20 ng/ml for one hour), the “125I-ubiquitin conjugation of cellular proteins” value was “dose dependent increase”.
